Assays:
Type in all cases: in vivo
intragastric pressure = assay: Increase in intragastric pressure (peripheral dopamine blockade) in conscious restrained rats; design: key: A = active; IA = inactive; details: rat
Experimental: Increase in intragastric pressure - peripheral dopamine blockade
Intragastric pressure changes were recorded from previously starved conscious but restrained rats using a saline filled catheter inserted into the lumen of the stomach via a permanent gastric fistula. The catheter was connected to a physiological pressure transducer and pressure changes recorded on a hot wire pen recorder. In each animal a pre-dose period of 40 minutes was allowed to obtain a measure of spontaneous activity. An index of activity was obtained by measuring the average height of pressure waves during 10 minute periods. Values for 4 such periods were obtained during assessment of spontaneous activity and for 40 minute period after administration of compound. Student's "T" test was applied to the difference in average values obtained for spontaneous and post compound activity.

vomiting response = assay: Anti-emetic activity in the dog (apomorphine-induced vomiting); design: key to Anti-emetic: A = active; IA = inactive; details: for Anti-emetic: at 0.1 mg/kg s.c., 30 minutes before apomorphine HC1 0.1 mg/kg s.c.; for ED50: Canis lupus familiaris, sc, s.c. 30 minutes before apomorphine HC1 0.1 mg/kg s.c.
Experimental: Anti-emetic activity in the dog
Compounds were administered subcutaneously 30 minutes prior to administration of a standard dose of apomorphine HC1 (0.1 mg/kg subcutaneously) and the vomiting response compared to that obtained when the same animals were dosed with apomorphine HC1 and vehicle only.

Dopamine Receptor = assay: Inhibition of apomorphine induced climbing in the mouse (central dopamine receptor blocking activity); design: key to CNS (Climbing): A = active; IA = inactive; details: apomorphine 1mg/kg s.c.

With “5-hlethanesu-lphonylamido-2-rnethoxy-3-methyl-N-[3a-[8-benzyl-8-azabicyclo(3.2.1)octyl}]benzamide [Compound 10]” the “IG Pressure (Basal)” value (intragastric pressure; at 1.0 mg/kg s.c.) was “A at 1.0” and the Anti-emetic (vomiting response) was “A at 0.1”.
`COc1cc(NS(C)(=O)=O)c(Cl)cc1C(=O)N[C@@H]1C[C@H]2CC[C@@H](C1)N2Cc1ccccc1` [Compound 1, 4-MethanGsulphonamJdo-5-ch3oro-2-methoxy-N-[3P-(8-benzyl-8-azabicyclo{3.2.1)octyl)]benzainide] was tested, and the “IG Pressure (Basal)” value (intragastric pressure; at 1.0 mg/kg s.c.) was “A at 1.0”, the “CNS (Climbing) ED50” value (Dopamine Receptor) was “ED50 0.2 mg/kg s.c” and the ED50 (vomiting response) was 0.02 mg/kg.
`COc1cc(NS(C)(=O)=O)c(S(C)(=O)=O)cc1C(=O)N[C@@H]1C[C@H]2CC[C@@H](C1)N2Cc1ccccc1` [Compound 6, 4-Methanesulphonamido-2-methoxy-5-methylsulphonyl-N-[3β-{8-benzy1-8-azabicyclo(3.2.1)octyl)]benzamide] was tested, and the “IG Pressure (Basal)” value (intragastric pressure; at 5.0 mg/kg s.c.) was “IA at 5.0”, the “CNS (Climbing)” value (Dopamine Receptor; at 50 mg/kg s.c.) was “IA at 50” and the Anti-emetic (vomiting response) was “A at 0.1”.
For `COc1cc(NS(C)(=O)=O)ccc1C(=O)N[C@@H]1C[C@H]2CC[C@@H](C1)N2Cc1ccccc1` [Compound 2, 4-methanesulphonamido-2-methoxy-N-[3β-(8-benzyl-8-azabicyclo(3.2.1)octyl)]benzamide], the “IG Pressure (Basal)” value (intragastric pressure; at 1.0 mg/kg s.c.) was “IA at 1.0”, the “CNS (Climbing)” value (Dopamine Receptor; at 10 mg/kg s.c.) was “A at 10” and the ED50 (vomiting response) was 0.1 mg/kg.
